Measured values from paper PMC12440824, “Chimeric deubiquitinase engineering reveals structural basis for specific inhibition of the mitophagy regulator USP30” (Nature Structural & Molecular Biology, 2025).
Read-outs that look alike come from different tables or passages of the source.

Legend:
[1] = test system: T1, endogenous USP30 in HEK293 cells; test: Cellular ubiquitin probe competition, endogenous USP30; assay type: cell-based, human; settings: 8 µM compound, 2 h; HA-Ub-PA probe in lysate
T1 construct: Target engagement assay with endogenous USP30; endogenous in cells; host or cells: HEK293 (DSMZ ACC 305)
Description: Cells were seeded at 8 × 10^5 cells per well and grown for 48 h. Compounds (2 µM for overexpressed USP30, 8 µM for endogenous USP30) or DMSO were added for 2 h in freshly supplied medium. The medium was aspirated, and cells were washed once with ice-cold PBS. Cells were collected by scraping in lysis buffer (150 mM NaCl, 250 mM sucrose, 50 mM Tris, pH 8.0, 5 mM TCEP) supplemented with EDTA-free complete protease inhibitor cocktail and benzonase. Suspended cells were homogenized by 12 bursts of a microtip probe sonicator (Branson Sonifier 450) at 10% amplitude with pulses of 1 s on ice. Remaining cell debris was separated by centrifugation (20,817g, 5 min, 4 °C). HA-Ub-PA probe was added to the cleared lysate (approximately 2–4 mg ml^−1) at a final concentration of 10 μM when indicated. After incubation for 10 min at room temperature, reactions were quenched by the addition of 4× reducing LDS sample buffer. Samples were resolved by SDS–PAGE and further analyzed via western blot.
Using a Trans-Blot Turbo system (Bio-Rad, 1.0 A, 25 V, 30 min), proteins were blotted onto a nitrocellulose membrane. […] Images were recorded on a ChemiDoc MP Imaging System (Bio-Rad).

USP30^ch3 I154A = USP30^ch3 I154A (Homo sapiens, UniProt Q70CQ3, I154A, form not given); test: Thermal shift assay, USP30 ch3 I154A; assay type: binding; settings: 20 μM inhibitor
Chain of USP30^ch3 I154A (Q70CQ3 64-502 I154A, form open): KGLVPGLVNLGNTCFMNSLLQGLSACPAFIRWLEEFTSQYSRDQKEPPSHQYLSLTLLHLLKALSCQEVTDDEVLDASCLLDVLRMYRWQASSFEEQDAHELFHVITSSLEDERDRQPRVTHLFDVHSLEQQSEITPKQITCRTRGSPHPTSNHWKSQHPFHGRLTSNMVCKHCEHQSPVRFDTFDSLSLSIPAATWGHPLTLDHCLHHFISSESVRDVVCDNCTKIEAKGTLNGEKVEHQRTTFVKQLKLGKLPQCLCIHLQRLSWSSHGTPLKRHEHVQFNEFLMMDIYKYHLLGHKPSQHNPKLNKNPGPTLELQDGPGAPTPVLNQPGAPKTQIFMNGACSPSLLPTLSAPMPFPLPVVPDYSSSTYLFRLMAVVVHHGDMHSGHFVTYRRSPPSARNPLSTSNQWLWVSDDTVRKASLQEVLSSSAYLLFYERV
Chain of USP30^ch3 I154A (P54578 248-318 partner, form open): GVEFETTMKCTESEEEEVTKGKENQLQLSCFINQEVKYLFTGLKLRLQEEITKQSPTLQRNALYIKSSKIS
Chain of USP30^ch3 I154A (Q9P2H5 821-846 partner, form open): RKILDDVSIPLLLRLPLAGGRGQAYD
Description: (§1) The thermal stability of USP30 constructs and effects of either inhibitor or Ub-PA binding were determined by thermal shift assays. Inhibitor, Ub-PA and SYPRO orange dye (Sigma, 5,000× stock in DMSO) solutions were prepared in 1× PBS, 4 mM DTT. Inhibitor/Ub-PA was prediluted to 100 µM, and SYPRO orange dye was prediluted to 50× (from the commercial stock). Mixtures of protein, inhibitor/Ub-PA and SYPRO were prepared with inhibitor/Ub-PA at a final concentration of 20 μM, SYPRO at a final concentration of 4× and protein at a final concentration of 2 μM for c1, 4 μM for ch1, ch4 and c2 and 3 μM for ch2 and ch3. Samples were added in triplicate to a white 96-well PCR plate (Bio-Rad). Fluorescence intensity was monitored (excitation, 450–490 nm; emission, 560–580 nm) at a gradient of 20–90 °C (increment of 0.3 °C, hold for 5 s before read) on a real-time PCR system (Bio-Rad).

USP30^ch1 = USP30^ch1 (Homo sapiens, UniProt Q70CQ3); test: Thermal shift assay, USP30 ch1; assay type: binding; settings: 20 μM inhibitor
Chain of USP30^ch1 (Q70CQ3 64-502): as the sequence (Q70CQ3 64-502 I154A, form open) above, with A91I counted along it
Chain of USP30^ch1 (Q93009 325-395 partner): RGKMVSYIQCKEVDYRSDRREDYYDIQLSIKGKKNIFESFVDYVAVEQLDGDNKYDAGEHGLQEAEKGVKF
Description: as §1

USP30^ch3 L328F = test: Thermal shift assay, USP30 ch3 L328F; assay type: binding, human; settings: 20 μM inhibitor; for ΔTm, USP30^ch3 L328F: replicates or average
Description: as §1

USP30 c2 = test: Thermal shift assay, USP30 c2; assay type: binding, human; settings: 20 μM inhibitor; for ΔTm, USP30 c2: replicates or average
Description: as §1

[2] = test system: T2, Flag-tagged, full-length USP30 F453Y in HEK293 cells; test: Cellular ubiquitin probe competition, overexpressed Flag-tagged USP30 F453Y; assay type: cell-based, human; settings: 2 µM compound, 2 h; HA-Ub-PA probe in lysate
T2 construct: C-terminally Flag-tagged human USP30 (1–517) was used for transient transfection; expressed in transfected cells; host or cells: HEK293, transient transfection of a pOPINE vector
Description: HEK293 cells (8 × 10^5 cells per well) were seeded in six-well plates and cultivated for 24 h. PEI transfecting reagent (Polysciences) was pre-incubated for 10 min with the vectors in 200 μl Opti-MEM medium (2 µg DNA per well). Cells were transfected and incubated for 48 h. Following the treatment with either compounds or DMSO in fresh medium for an additional 2 h, cells were processed as described below. Cells were seeded at 8 × 10^5 cells per well and grown for 48 h. […] The medium was aspirated, and cells were washed once with ice-cold PBS. Cells were collected by scraping in lysis buffer (150 mM NaCl, 250 mM sucrose, 50 mM Tris, pH 8.0, 5 mM TCEP) supplemented with EDTA-free complete protease inhibitor cocktail and benzonase. Suspended cells were homogenized by 12 bursts of a microtip probe sonicator (Branson Sonifier 450) at 10% amplitude with pulses of 1 s on ice. Remaining cell debris was separated by centrifugation (20,817g, 5 min, 4 °C). […] After incubation for 10 min at room temperature, reactions were quenched by the addition of 4× reducing LDS sample buffer. Samples were resolved by SDS–PAGE and further analyzed via western blot. Using a Trans-Blot Turbo system (Bio-Rad, 1.0 A, 25 V, 30 min), proteins were blotted onto a nitrocellulose membrane. […]

USP30^c1 = target: T3, USP30^c1 (Homo sapiens, UniProt Q70CQ3, DEL179-208/DEL211-214/DEL358-428/F348D/I353E/M350S/N216S/S215G); test: Thermal shift assay, USP30 c1; assay type: binding; settings: for Tm in presence of compound, USP30^c1: 20 μM inhibitor
T3 sequence (Q70CQ3 with tags, fused parts or gaps DEL179-208/DEL211-214/S215G/N216S/F348D/M350S/I353E/DEL358-428): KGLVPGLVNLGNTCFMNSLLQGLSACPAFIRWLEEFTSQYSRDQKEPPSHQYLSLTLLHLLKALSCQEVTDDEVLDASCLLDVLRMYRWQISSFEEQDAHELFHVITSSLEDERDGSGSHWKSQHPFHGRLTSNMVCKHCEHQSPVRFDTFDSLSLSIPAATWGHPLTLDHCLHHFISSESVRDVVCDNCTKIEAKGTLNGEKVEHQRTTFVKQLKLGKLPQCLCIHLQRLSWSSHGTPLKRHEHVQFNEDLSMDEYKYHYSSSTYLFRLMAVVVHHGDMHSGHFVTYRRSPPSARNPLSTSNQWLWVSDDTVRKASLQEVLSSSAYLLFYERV
Description: as §1

SMILES | activity in probe-labeling experiment with endogenous USP30 [1] | Tm in presence of compound, USP30^ch3 I154A (USP30^ch3 I154A) [°C] | Tm in presence of compound, USP30^ch1 (USP30^ch1) [°C] | Tm in presence of compound, USP30^ch3 L328F (USP30^ch3 L328F) [°C] | ΔTm, USP30^ch3 L328F (USP30^ch3 L328F) [°C] | Tm in presence of compound, USP30 c2 (USP30 c2) [°C] | ΔTm, USP30 c2 (USP30 c2) [°C] | probe labeling of Flag-USP30 F453Y [2] | Tm in presence of compound, USP30^c1 (USP30^c1) [°C] | ΔTm at 20 µM (USP30^c1; read-out: ΔTm, USP30^c1) [°C] | ΔTm at 20 µM (USP30^c1; read-out: ΔTm, column headed USP30c1 in sheet Fig. 4f) [°C]
CC(C)(CO)NS(=O)(=O)c1ccc(NC(=O)[C@H](Cc2ccccc2)NC(=O)c2ccc(F)cc2)cc1 [NK036] | confirmed | 59.0 | 55.2 | 58.2 | 1.2 | 58.2 | 7.5 | equally labeled | 58.3 | 7.2 | 6.1
CC(C)(C)NS(=O)(=O)c1ccc(NC(=O)[C@H](Cc2ccccc2)NC(=O)c2ccc(F)cc2)cc1 [compound 39] | confirmed | 59.0 | 56.1 | 58.5 | 1.5 | 58.5 | 7.8 | equally labeled | 58.9 | 7.8 | 
